From ChEMBL document CHEMBL1938230, “6-Position optimization of tricyclic 4-quinolone-based inhibitors of glycogen synthase kinase-3β: discovery of nitrile derivatives with picomolar potency” (Bioorg Med Chem Lett, 2012)

What was measured:
HL-60 = assay: Inhibition of human ACK in HL-60 cells lysate assessed as reduction of labeling of acyl-phosphate ATP probe at 100 nM
[1] = biological target: Phosphatidylinositol 4-phosphate 3-kinase C2 domain-containing subunit beta (Homo sapiens) (UniProt O00750); assay: Inhibition of human PIK3C2B in HL-60 cells lysate assessed as reduction of labeling of acyl-phosphate ATP probe at 100 nM; format: cell-free
[2] = biological target: Cyclin-dependent kinase 2 (Homo sapiens) (UniProt P24941); assay: Inhibition of human CDK2 in HL-60 cells lysate assessed as reduction of labeling of acyl-phosphate ATP probe at 100 nM; format: cell-free
[3] = biological target: T1, Mitogen-activated protein kinase kinase kinase 2 (Homo sapiens) (UniProt Q9Y2U5); assay: Inhibition of human MAP3K2 in HL-60 cells lysate assessed as reduction of labeling of acyl-phosphate ATP probe at 100 nM; format: cell-free
T1 sequence (whole entry): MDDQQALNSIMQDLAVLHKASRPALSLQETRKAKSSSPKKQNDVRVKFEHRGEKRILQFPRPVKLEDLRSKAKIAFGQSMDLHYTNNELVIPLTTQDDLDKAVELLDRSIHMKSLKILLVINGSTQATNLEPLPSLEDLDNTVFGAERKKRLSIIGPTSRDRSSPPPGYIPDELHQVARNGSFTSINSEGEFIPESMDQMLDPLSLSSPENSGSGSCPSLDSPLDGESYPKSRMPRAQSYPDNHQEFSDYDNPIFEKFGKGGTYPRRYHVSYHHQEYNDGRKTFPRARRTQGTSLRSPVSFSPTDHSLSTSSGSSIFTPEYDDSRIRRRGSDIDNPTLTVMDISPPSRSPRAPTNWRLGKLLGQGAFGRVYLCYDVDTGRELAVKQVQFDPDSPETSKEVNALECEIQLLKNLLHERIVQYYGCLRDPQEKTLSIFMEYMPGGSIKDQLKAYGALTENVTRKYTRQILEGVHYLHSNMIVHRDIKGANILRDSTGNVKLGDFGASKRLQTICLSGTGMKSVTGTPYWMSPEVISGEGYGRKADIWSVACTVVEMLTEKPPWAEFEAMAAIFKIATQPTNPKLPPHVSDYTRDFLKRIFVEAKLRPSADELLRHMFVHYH

[4] = biological target: Serine/threonine-protein kinase 24 (Homo sapiens) (UniProt Q9Y6E0); assay: Inhibition of human MST3 in HL-60 cells lysate assessed as reduction of labeling of acyl-phosphate ATP probe at 100 nM; format: cell-free
[5] = biological target: Serine/threonine-protein kinase SMG1 (Homo sapiens) (UniProt Q96Q15); assay: Inhibition of human SMG1 in HL-60 cells lysate assessed as reduction of labeling of acyl-phosphate ATP probe at 100 nM; format: cell-free
[6] = test system: MAP4K2 (germinal center kinase) (Homo sapiens); assay: Inhibition of human GCK in HL-60 cells lysate assessed as reduction of labeling of acyl-phosphate ATP probe at 100 nM

Chain of Phosphatidylinositol 4-phosphate 3-kinase C2 domain-containing subunit beta (Homo sapiens) (O00750 whole entry, the tested form may be a part): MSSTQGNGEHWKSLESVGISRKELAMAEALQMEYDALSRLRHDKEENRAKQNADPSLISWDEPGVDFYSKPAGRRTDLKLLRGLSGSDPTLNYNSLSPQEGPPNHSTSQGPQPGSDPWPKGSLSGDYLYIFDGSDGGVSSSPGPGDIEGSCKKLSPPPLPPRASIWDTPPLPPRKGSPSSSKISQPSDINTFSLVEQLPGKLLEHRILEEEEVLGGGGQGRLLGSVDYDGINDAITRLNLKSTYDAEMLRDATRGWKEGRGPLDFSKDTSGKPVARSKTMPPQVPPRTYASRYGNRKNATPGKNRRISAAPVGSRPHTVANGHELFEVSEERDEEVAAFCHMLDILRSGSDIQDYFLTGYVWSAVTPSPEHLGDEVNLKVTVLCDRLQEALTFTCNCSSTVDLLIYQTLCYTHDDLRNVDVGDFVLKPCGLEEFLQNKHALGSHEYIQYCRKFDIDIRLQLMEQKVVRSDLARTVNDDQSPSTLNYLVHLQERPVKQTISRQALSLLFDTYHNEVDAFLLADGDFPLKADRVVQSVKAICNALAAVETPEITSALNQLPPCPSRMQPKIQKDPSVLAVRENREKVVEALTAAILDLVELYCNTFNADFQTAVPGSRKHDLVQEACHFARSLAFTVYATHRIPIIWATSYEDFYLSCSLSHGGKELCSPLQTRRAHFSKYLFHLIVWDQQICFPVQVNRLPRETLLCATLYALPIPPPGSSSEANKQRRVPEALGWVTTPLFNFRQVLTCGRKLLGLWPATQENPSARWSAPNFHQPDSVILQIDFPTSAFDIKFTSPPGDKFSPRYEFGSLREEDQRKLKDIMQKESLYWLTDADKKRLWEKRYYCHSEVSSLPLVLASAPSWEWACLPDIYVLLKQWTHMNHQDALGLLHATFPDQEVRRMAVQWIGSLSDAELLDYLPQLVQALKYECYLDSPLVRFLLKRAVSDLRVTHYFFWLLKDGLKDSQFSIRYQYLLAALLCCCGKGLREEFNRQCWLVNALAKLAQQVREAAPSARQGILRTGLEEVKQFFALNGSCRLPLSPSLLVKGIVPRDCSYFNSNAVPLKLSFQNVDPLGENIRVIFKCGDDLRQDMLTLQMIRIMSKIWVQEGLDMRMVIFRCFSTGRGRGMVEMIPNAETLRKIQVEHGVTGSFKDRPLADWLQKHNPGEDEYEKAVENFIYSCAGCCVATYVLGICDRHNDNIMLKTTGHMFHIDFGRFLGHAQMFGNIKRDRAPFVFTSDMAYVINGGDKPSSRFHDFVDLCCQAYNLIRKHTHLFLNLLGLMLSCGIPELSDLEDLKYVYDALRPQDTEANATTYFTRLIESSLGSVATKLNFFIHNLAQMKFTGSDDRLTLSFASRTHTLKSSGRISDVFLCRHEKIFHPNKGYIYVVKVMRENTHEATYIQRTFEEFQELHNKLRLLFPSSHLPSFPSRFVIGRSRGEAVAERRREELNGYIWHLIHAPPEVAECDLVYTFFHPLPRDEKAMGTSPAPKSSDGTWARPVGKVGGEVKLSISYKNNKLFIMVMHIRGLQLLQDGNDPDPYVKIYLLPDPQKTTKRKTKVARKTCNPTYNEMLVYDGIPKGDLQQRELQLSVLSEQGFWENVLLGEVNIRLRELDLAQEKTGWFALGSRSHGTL
Chain of Serine/threonine-protein kinase 24 (Homo sapiens) (Q9Y6E0 whole entry, looked up): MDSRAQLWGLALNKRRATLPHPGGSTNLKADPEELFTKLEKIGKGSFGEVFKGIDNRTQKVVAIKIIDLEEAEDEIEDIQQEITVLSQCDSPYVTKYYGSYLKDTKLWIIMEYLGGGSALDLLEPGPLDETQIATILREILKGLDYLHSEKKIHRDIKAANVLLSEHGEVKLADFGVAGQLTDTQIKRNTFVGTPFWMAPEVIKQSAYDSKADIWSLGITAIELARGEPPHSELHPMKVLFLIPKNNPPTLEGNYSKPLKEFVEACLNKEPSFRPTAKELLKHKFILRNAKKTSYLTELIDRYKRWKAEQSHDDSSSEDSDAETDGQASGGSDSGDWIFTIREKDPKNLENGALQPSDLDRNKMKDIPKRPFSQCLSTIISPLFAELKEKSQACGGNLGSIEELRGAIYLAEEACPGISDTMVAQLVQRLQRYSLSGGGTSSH

C[C@H]1COc2c(NCCCc3ccccn3)c(F)c(N)c3c(=O)c(C#N)cn1c23
< 35%: inhibition at 0.1 µM (HL-60) | inhibition [1] | inhibition [2] | inhibition [3] | inhibition [4] | inhibition [5]

C[C@H]1COc2c(NCCCc3ccccn3)c(F)c(N)c3c(=O)c(C(=O)O)cn1c23
< 35%: inhibition at 0.1 µM (HL-60) | inhibition [6] | inhibition [1] | inhibition [2] | inhibition [3] | inhibition [4] | inhibition [5]

C[C@H]1COc2c(NCCCn3cccn3)c(F)c(N)c3c(=O)c(C(=O)O)cn1c23
< 35%: inhibition at 0.1 µM (HL-60) | inhibition [1] | inhibition [2] | inhibition [3] | inhibition [4] | inhibition [5]

C[C@H]1COc2c(NCCCn3cccn3)c(F)c(N)c3c(=O)c(C#N)cn1c23
< 35%: inhibition at 0.1 µM (HL-60) | inhibition [6] | inhibition [1] | inhibition [2] | inhibition [3] | inhibition [4] | inhibition [5]
